Species: Rattus norvegicus
Test: DrugMatrix - Regimen: Daily Repeat
Format: toxicity, organism-based, Sprague-Dawley
Set-up: regimen Daily Repeat, gender Male, age 6-8 weeks
Conditions: in vivo, iv, vehicle 100 % SALINE; for ABSOLUTE BASOPHIL / ABSOLUTE EOSINOPHIL / ABSOLUTE LYMPHOCYTE / ABSOLUTE MONOCYTE / ABSOLUTE SEGMENTED NEUTROPHIL / BASOPHIL / EOSINOPHIL / ERYTHROCYTE COUNT / HEMATOCRIT / HEMOGLOBIN / LEUKOCYTE COUNT / LYMPHOCYTE / MEAN CORPUSCULAR HEMOGLOBIN / MEAN CORPUSCULAR HEMOGLOBIN CONCENTRATION / MEAN CORPUSCULAR VOLUME / MONOCYTE / NEUTROPHIL / NUCLEATED RED BLOOD CELLS / PLATELET COUNT: tissue Blood; for ALANINE AMINOTRANSFERASE / ALBUMIN / ALKALINE PHOSPHATASE / ASPARTATE AMINOTRANSFERASE / BLOOD UREA NITROGEN / CARBON DIOXIDE / CHLORIDE / CHOLESTEROL / CREATINE PHOSPHOKINASE / CREATININE / GLUCOSE / LACTATE DEHYDROGENASE / LIPASE / PHOSPHORUS / POTASSIUM / SODIUM / TOTAL BILIRUBIN / TOTAL PROTEIN / URIC ACID: tissue Plasma
[1] = 11 mg/kg, 72 h, dose level High, time 3 day
[2] = 11 mg/kg, 120 h, dose level High, time 5 day
[3] = […], 72 h, dose 2.6 mg/Kg, dose level Low, time 3 day
[4] = […], 120 h, dose 2.6 mg/Kg, dose level Low, time 5 day

Nc1ccn([C@@H]2O[C@H](CO)[C@@H](O)C2(F)F)c(=O)n1 [GEMCITABINE]
ABSOLUTE BASOPHIL [1]: 0 CELLS/uL | ABSOLUTE EOSINOPHIL [1]: 0 CELLS/uL | ABSOLUTE LYMPHOCYTE [1]: 4311.33 CELLS/uL | ABSOLUTE MONOCYTE [1]: 21.67 CELLS/uL | ABSOLUTE SEGMENTED NEUTROPHIL [1]: 200.33 CELLS/uL | BASOPHIL [1]: 0% | EOSINOPHIL [1]: 0% | ERYTHROCYTE COUNT [1]: 5.19 x10E6/uL | HEMATOCRIT [1]: 33.27% | HEMOGLOBIN [1]: 13.03 G/DL | LEUKOCYTE COUNT [1]: 4.53 x10E3/uL | LYMPHOCYTE [1]: 95% | MEAN CORPUSCULAR HEMOGLOBIN [1]: 25.07 pg | MEAN CORPUSCULAR HEMOGLOBIN CONCENTRATION [1]: 39.2 G/DL | MEAN CORPUSCULAR VOLUME [1]: 63.93 fL | MONOCYTE [1]: 0.33% | NEUTROPHIL [1]: 4.67% | NUCLEATED RED BLOOD CELLS [1]: 0 /100WBC | PLATELET COUNT [1]: 706.67 x10E3/uL | ALANINE AMINOTRANSFERASE [1]: 46.67 u/L | ALBUMIN [1]: 3.5 G/DL | ALKALINE PHOSPHATASE [1]: 373 u/L | ASPARTATE AMINOTRANSFERASE [1]: 100.67 u/L | BLOOD UREA NITROGEN [1]: 15.67 mg/dL | CARBON DIOXIDE [1]: 24.33 mmol/L | CHLORIDE [1]: 107.33 MEQ/L | CHOLESTEROL [1]: 63.33 mg/dL | CREATINE PHOSPHOKINASE [1]: 316.67 u/L | CREATININE [1]: 0.13 mg/dL | GLUCOSE [1]: 143 mg/dL | LACTATE DEHYDROGENASE [1]: 80.33 u/L | LIPASE [1]: 8 u/L | PHOSPHORUS [1]: 9.73 mg/dL | POTASSIUM [1]: 5.2 MEQ/L | SODIUM [1]: 145.57 MEQ/L | TOTAL BILIRUBIN [1]: 0.17 mg/dL | TOTAL PROTEIN [1]: 4.97 G/DL | URIC ACID [1]: 1.3 mg/dL | ABSOLUTE BASOPHIL [2]: 0 CELLS/uL | ABSOLUTE EOSINOPHIL [2]: 12.67 CELLS/uL | ABSOLUTE LYMPHOCYTE [2]: 2696.33 CELLS/uL | ABSOLUTE MONOCYTE [2]: 10 CELLS/uL | ABSOLUTE SEGMENTED NEUTROPHIL [2]: 47.67 CELLS/uL | BASOPHIL [2]: 0% | EOSINOPHIL [2]: 0.33% | ERYTHROCYTE COUNT [2]: 8.1 x10E6/uL | HEMATOCRIT [2]: 50% | HEMOGLOBIN [2]: 19.4 G/DL | LEUKOCYTE COUNT [2]: 2.77 x10E3/uL | LYMPHOCYTE [2]: 97.67% | MEAN CORPUSCULAR HEMOGLOBIN [2]: 24 pg | MEAN CORPUSCULAR HEMOGLOBIN CONCENTRATION [2]: 38.9 G/DL | MEAN CORPUSCULAR VOLUME [2]: 61.67 fL | MONOCYTE [2]: 0.33% | NEUTROPHIL [2]: 1.67% | NUCLEATED RED BLOOD CELLS [2]: 0.33 /100WBC | PLATELET COUNT [2]: 374.33 x10E3/uL | ALANINE AMINOTRANSFERASE [2]: 34.67 u/L | ALBUMIN [2]: 3.5 G/DL | ALKALINE PHOSPHATASE [2]: 152.67 u/L | ASPARTATE AMINOTRANSFERASE [2]: 232 u/L | BLOOD UREA NITROGEN [2]: 36.67 mg/dL | CARBON DIOXIDE [2]: 26.33 mmol/L | CHLORIDE [2]: 107 MEQ/L | CHOLESTEROL [2]: 104.67 mg/dL | CREATINE PHOSPHOKINASE [2]: 2721.33 u/L | CREATININE [2]: 0.23 mg/dL | GLUCOSE [2]: 286.33 mg/dL | LACTATE DEHYDROGENASE [2]: 384.67 u/L | LIPASE [2]: 10.33 u/L | PHOSPHORUS [2]: 10.93 mg/dL | POTASSIUM [2]: 4.87 MEQ/L | SODIUM [2]: 146.9 MEQ/L | TOTAL BILIRUBIN [2]: 0.1 mg/dL | TOTAL PROTEIN [2]: 6.03 G/DL | URIC ACID [2]: 1.6 mg/dL | ABSOLUTE BASOPHIL [3]: 0 CELLS/uL | ABSOLUTE EOSINOPHIL [3]: 0 CELLS/uL | ABSOLUTE LYMPHOCYTE [3]: 7048.67 CELLS/uL | ABSOLUTE MONOCYTE [3]: 0 CELLS/uL | ABSOLUTE SEGMENTED NEUTROPHIL [3]: 484.67 CELLS/uL | BASOPHIL [3]: 0% | EOSINOPHIL [3]: 0% | ERYTHROCYTE COUNT [3]: 5.03 x10E6/uL | HEMATOCRIT [3]: 31.87% | HEMOGLOBIN [3]: 12.73 G/DL | LEUKOCYTE COUNT [3]: 7.53 x10E3/uL | LYMPHOCYTE [3]: 93.67% | MEAN CORPUSCULAR HEMOGLOBIN [3]: 25.37 pg | MEAN CORPUSCULAR HEMOGLOBIN CONCENTRATION [3]: 39.97 G/DL | MEAN CORPUSCULAR VOLUME [3]: 63.43 fL | MONOCYTE [3]: 0% | NEUTROPHIL [3]: 6.33% | NUCLEATED RED BLOOD CELLS [3]: 0 /100WBC | PLATELET COUNT [3]: 1190.67 x10E3/uL | ALANINE AMINOTRANSFERASE [3]: 55.33 u/L | ALBUMIN [3]: 4.03 G/DL | ALKALINE PHOSPHATASE [3]: 332.67 u/L | ASPARTATE AMINOTRANSFERASE [3]: 110 u/L | BLOOD UREA NITROGEN [3]: 16.67 mg/dL | CARBON DIOXIDE [3]: 25 mmol/L | CHLORIDE [3]: 97.67 MEQ/L | CHOLESTEROL [3]: 76.67 mg/dL | CREATINE PHOSPHOKINASE [3]: 485.33 u/L | CREATININE [3]: 0.14 mg/dL | GLUCOSE [3]: 175.33 mg/dL | LACTATE DEHYDROGENASE [3]: 141.67 u/L | LIPASE [3]: 9 u/L | PHOSPHORUS [3]: 12.07 mg/dL | POTASSIUM [3]: 6.4 MEQ/L | SODIUM [3]: 141.6 MEQ/L | TOTAL BILIRUBIN [3]: 0.2 mg/dL | TOTAL PROTEIN [3]: 5.93 G/DL | URIC ACID [3]: 1.5 mg/dL | ABSOLUTE BASOPHIL [4]: 0 CELLS/uL | ABSOLUTE EOSINOPHIL [4]: 0 CELLS/uL | ABSOLUTE LYMPHOCYTE [4]: 4224 CELLS/uL | ABSOLUTE MONOCYTE [4]: 19 CELLS/uL | ABSOLUTE SEGMENTED NEUTROPHIL [4]: 23.67 CELLS/uL | BASOPHIL [4]: 0% | EOSINOPHIL [4]: 0% | ERYTHROCYTE COUNT [4]: 5.09 x10E6/uL | HEMATOCRIT [4]: 32.1% | HEMOGLOBIN [4]: 12.83 G/DL | LEUKOCYTE COUNT [4]: 4.27 x10E3/uL | LYMPHOCYTE [4]: 99% | MEAN CORPUSCULAR HEMOGLOBIN [4]: 25.2 pg | MEAN CORPUSCULAR HEMOGLOBIN CONCENTRATION [4]: 39.97 G/DL | MEAN CORPUSCULAR VOLUME [4]: 63.1 fL | MONOCYTE [4]: 0.33% | NEUTROPHIL [4]: 0.67% | NUCLEATED RED BLOOD CELLS [4]: 0.33 /100WBC | PLATELET COUNT [4]: 699.67 x10E3/uL | ALANINE AMINOTRANSFERASE [4]: 46.33 u/L | ALBUMIN [4]: 4.17 G/DL | ALKALINE PHOSPHATASE [4]: 368 u/L | ASPARTATE AMINOTRANSFERASE [4]: 127.67 u/L | BLOOD UREA NITROGEN [4]: 13.33 mg/dL | CARBON DIOXIDE [4]: 24.67 mmol/L | CHLORIDE [4]: 104 MEQ/L | CHOLESTEROL [4]: 70.67 mg/dL | CREATINE PHOSPHOKINASE [4]: 350.33 u/L | CREATININE [4]: 0.12 mg/dL | GLUCOSE [4]: 151.67 mg/dL | LACTATE DEHYDROGENASE [4]: 93.33 u/L | LIPASE [4]: 8 u/L | PHOSPHORUS [4]: 11.03 mg/dL | POTASSIUM [4]: 6.21 MEQ/L | SODIUM [4]: 143.67 MEQ/L | TOTAL BILIRUBIN [4]: 0.1 mg/dL | TOTAL PROTEIN [4]: 6.03 G/DL | URIC ACID [4]: 1.63 mg/dL

From ChEMBL document CHEMBL3885881, “DrugMatrix”
